Data: patent US9890185B2, “Urea derivatives useful as kinase inhibitors” (Respivert Limited, priority 2013, dated 2018)

Legend:
GSK 3α = GSK 3α (Homo sapiens (Human), UniProt P49840); assay: GSK 3α enzyme inhibition (FRET, Z-LYTE, Method 2); format: biochemical; conditions: read-out: IC50 Values for Enzyme Inhibition, GSK3α
Procedure: The enzyme inhibitory activities of compounds disclosed herein are determined by FRET using synthetic peptides labelled with both donor and acceptor fluorophores (Z-LYTE, Invitrogen Ltd., Paisley, UK).
The following two assay variants can be used for determination of GSK 3α inhibition.
The inhibitory activities of compounds of the invention against the GSK 3α enzyme isoform (Invitrogen), are evaluated by determining the level of activation/phosphorylation of the target peptide. The GSK3-α protein (500 ng/mL, 2.5 μL) is mixed with the test compound (2.5 μL at either 4 μg/mL, 0.4 μg/mL, 0.04 μg/mL, or 0.004 μg/mL) for 2 hr at RT. The FRET peptide (8 μM, 2.5 μL), which is a phosphorylation target for GSK3α, and ATP (40 μM, 2.5 μL) are then added to the enzyme/compound mixture and the resulting mixture incubated for 1 hr. Development reagent (protease, 5 μL) is added for 1 hr prior to detection in a fluorescence microplate reader (Varioskan® Flash, ThermoFisher Scientific).
In all cases, the site-specific protease cleaves non-phosphorylated peptide only and eliminates the FRET signal. Phosphorylation levels of each reaction are calculated using the ratio of coumarin emission (donor) over fluorescein emission (acceptor), for which high ratios indicate high phosphorylation and low ratios indicate low phosphorylation levels. The percentage inhibition of each reaction is calculated relative to non-inhibited control and the 50% inhibitory concentration (IC50 value) is then calculated from the concentration-response curve.
This method follows the same steps as Method 1 above, but utilises a shorter period of mixing of the test compound (105 minutes instead of 2 hours) with the GSK3-α protein.

PBMCs = assay: LPS-induced IL-8 release in PBMC cells (assay b); format: cell-based, human; conditions: Homo sapiens, PBMC; LPS-stimulated PBMCs; read-out: IC50 Values for Inhibition of Cytokine Release, PBMCs IL-8
Procedure: Peripheral blood mononuclear cells (PBMCs) from healthy subjects are separated from whole blood using a density gradient (Lymphoprep, Axis-Shield Healthcare). The PBMCs are seeded in 96 well plates and treated with compounds at the desired concentration for 2 hours before addition of 1 ng/mL LPS (Escherichia Coli 0111:B4 from Sigma Aldrich) for 24 hours under normal tissue culture conditions (37° C., 5% CO2). The supernatant is harvested for determination of IL-8 and TNFα concentrations by sandwich ELISA (Duo-set, R&D systems) and read on the fluorescence microplate reader (Varioskan® Flash, ThermoFisher Scientific). The concentration at 50% inhibition (IC50) of IL-8 and TNFα production is calculated from the dose response curve.

Chain of GSK 3α (P49840 whole entry): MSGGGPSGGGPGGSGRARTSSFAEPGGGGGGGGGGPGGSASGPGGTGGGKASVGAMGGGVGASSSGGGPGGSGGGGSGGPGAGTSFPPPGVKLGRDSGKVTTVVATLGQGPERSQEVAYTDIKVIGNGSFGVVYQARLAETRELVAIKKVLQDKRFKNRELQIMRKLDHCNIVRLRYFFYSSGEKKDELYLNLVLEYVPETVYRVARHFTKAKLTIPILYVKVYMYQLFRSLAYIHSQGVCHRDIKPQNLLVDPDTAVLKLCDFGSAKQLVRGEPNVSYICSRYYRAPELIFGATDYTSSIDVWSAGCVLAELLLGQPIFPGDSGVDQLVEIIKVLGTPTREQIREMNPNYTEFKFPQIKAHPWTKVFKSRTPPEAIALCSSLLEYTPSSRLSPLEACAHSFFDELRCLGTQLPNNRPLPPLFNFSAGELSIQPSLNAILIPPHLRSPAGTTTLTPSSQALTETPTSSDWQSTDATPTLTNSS

## COCCOCCOCCNC(=O)c1cc(Nc2cc(Oc3ccc(NC(=O)Nc4cc(C(C)(C)C)cc(CC(N)=O)c4OC)c(Cl)c3Cl)ccn2)cc(OC)c1 [38(ag), 3-((4-(4-(3-(3-(2-Amino-2-oxoethyl)-5-(tert-butyl)-2-methoxyphenyl)ureido)-2,3-dichlorophenoxy)pyridin-2-yl)amino)-5-methoxy-N-(2-(2-(2-methoxyethoxy)ethoxy)ethyl)benzamide]
GSK 3α
  IC50: 370 nM
PBMCs
  IC50: 0.6 nM

## COc1cc(Nc2nccc(Oc3ccc(NC(=O)Nc4cc(C(C)(C)C)cc(C(=O)NCCN5CCOCC5)c4OC)c4ccccc34)n2)cc(C(=O)NCCN2CCOCC2)c1 [38(ak), 5-(tert-Butyl)-2-methoxy-3-(3-(4-((2-((3-methoxy-5-((2-morpholinoethyl)carbamoyl)-phenyl)amino)pyrimidin-4-yl)oxy)naphthalen-1-yl)ureido)-N-(2-morpholinoethyl)benzamide]
GSK 3α
  IC50: 461 nM
PBMCs
  IC50: 1.2 nM

## COc1cc(Nc2cc(Oc3ccc(NC(=O)Nc4cc(C(C)(C)C)cc(P(C)(C)=O)c4OC)c4ccccc34)ccn2)cc(C(=O)NCCN2CC[S+]([O-])CC2)c1 [38(am), 3-((4-((4-(3-(5-(tert-Butyl)-3-(dimethylphosphoryl)-2-methoxyphenyl)ureido)naphthalen-1-yl)oxy)pyridin-2-yl)amino)-5-methoxy-N-(2-(1-oxidothiomorpholino)ethyl)benzamide]
GSK 3α
  IC50: 1500 nM
PBMCs
  IC50: 6.2 nM

## COc1cc(Nc2cc(Oc3ccc(NC(=O)Nc4cc(C(C)(C)C)cc(S(C)(=O)=O)c4OC)c4ccccc34)ccn2)ccc1C(=O)NCCN1CCOCC1 [38(ap), 4-((4-((4-(3-(5-(tert-Butyl)-2-methoxy-3-(methylsulfonyl)phenyl)ureido)naphthalen-1-yl)oxy)pyridin-2-yl)amino)-2-methoxy-N-(2-morpholinoethyl)benzamide]
GSK 3α
  IC50: > 5800 nM
PBMCs
  IC50: 4.5 nM

## COc1c(NC(=O)Nc2ccc(Oc3ccnc(Nc4ccccc4)c3)c3ccccc23)cc(C(C)(C)C)cc1[S+](C)[O-] (stereo not shown) [38(b1), 1-(5-(tert-Butyl)-2-methoxy-3-(methylsulfinyl)phenyl)-3-(4-((2-(phenylamino)pyridin-4-yl)oxy)naphthalen-1-yl)urea]
GSK 3α
  IC50: > 9660 nM
PBMCs
  IC50: 8.3 nM

## COc1cccc(Nc2cc(Oc3ccc(NC(=O)Nc4cc(C(C)(C)C)cc(CC(=O)N(C)C)c4OC)c4ccccc34)ccn2)c1 [38(i), 2-(5-(tert-Butyl)-2-methoxy-3-(3-(4-((2-((3-methoxyphenyl)amino)pyridin-4-yl)oxy)naphthalen-1-yl)ureido)phenyl)-N,N-dimethylacetamide]
GSK 3α
  IC50: > 15400 nM
PBMCs
  IC50: 11.4 nM

## COc1cccc(Nc2cc(Oc3ccc(NC(=O)Nc4cc(C(C)(C)C)cc(CC(=O)N5CCOCC5)c4OC)c4ccccc34)ccn2)c1 [38(j), 1-(5-(tert-Butyl)-2-methoxy-3-(2-morpholino-2-oxoethyl)phenyl)-3-(4-((2-((3-methoxyphenyl)amino)pyridin-4-yl)oxy)naphthalen-1-yl)urea]
GSK 3α
  IC50: > 14500 nM
PBMCs
  IC50: 12.5 nM

## COc1c(CC(N)=O)cc(C(C)(C)C)cc1NC(=O)Nc1ccc(Oc2ccnc(Nc3ccccc3)c2)c(F)c1F [38(l), 2-(5-(tert-Butyl)-3-(3-(2,3-difluoro-4-((2-(phenylamino)pyridin-4-yl)oxy)phenyl)ureido)-2-methoxyphenyl)acetamide]
GSK 3α
  IC50: 472 nM
PBMCs
  IC50: 5.9 nM

## COc1c(CNC(C)=O)cc(C(C)(C)C)cc1NC(=O)Nc1ccc(Oc2ccnc(Nc3cc(C)cc(C)c3)c2)c2ccccc12 [38(p), N-(5-(tert-Butyl)-3-(3-(4-((2-((3,5-dimethylphenyl)amino)pyridin-4-yl)oxy)naphthalen-1-yl)ureido)-2-methoxybenzyl)acetamide]
GSK 3α
  IC50: > 15800 nM
PBMCs
  IC50: 7.2 nM

## COCCOCCOCCNC(=O)c1cc(Nc2cc(Oc3ccc(NC(=O)Nc4cc(C(C)(C)C)cc(C[S+](C)[O-])c4OC)c4ccccc34)ccn2)cc(OC)c1 (stereo not shown) [38(z), 3-((4-((4-(3-(5-(tert-Butyl)-2-methoxy-3-((methylsulfinyl)methyl)phenyl)ureido)naphthalen-1-yl)oxy)pyridin-2-yl)amino)-5-methoxy-N-(2-(2-(2-methoxyethoxy)ethoxy)ethyl)benzamide]
GSK 3α
  IC50: 789 nM
PBMCs
  IC50: 0.6 nM

## COc1cc(Nc2cc(Oc3ccc(NC(=O)Nc4cc(C(C)(C)C)cc(P(C)(C)=O)c4OC)c4ccccc34)ccn2)ccc1C(=O)N1CCN(C)CC1 [79(a), 1-(5-tert-Butyl-3-dimethylphosphoryl-2-methoxy-phenyl)-3-[4-[[2-[3-methoxy-4-(4-methylpiperazine-1-carbonyl)anilino]-4-pyridyl]oxy]-1-naphthyl]urea]
GSK 3α
  IC50: 480 nM
PBMCs
  IC50: 5.1 nM

## COc1cc(Nc2cc(Oc3ccc(NC(=O)Nc4cc(C(C)(C)C)cc(P(C)(C)=O)c4OC)c4ccccc34)ccn2)ccc1C(=O)NC1CCN(C)CC1 [79(b), 4-[[4-[[4-[(5-tert-Butyl-3-dimethylphosphoryl-2-methoxy-phenyl)carbamoylamino]-1-naphthyl]oxy]-2-pyridyl]amino]-2-methoxy-N-(1-methyl-4-piperidyl)benzamide]
GSK 3α
  IC50: 1880 nM
PBMCs
  IC50: 7.4 nM

## COc1cc(Nc2cc(Oc3ccc(NC(=O)Nc4cc(C(C)(C)C)cc(P(C)(C)=O)c4OC)c4ccccc34)ccn2)ccc1C(=O)NCCN(C)C [79(c), 4-[[4-[[4-[(5-tert-Butyl-3-dimethylphosphoryl-2-methoxy-phenyl)carbamoylamino]-1-naphthyl]oxy]-2-pyridyl]amino]-N-(2-dimethylaminoethyl)-2-methoxy-benzamide]
GSK 3α
  IC50: 1770 nM
PBMCs
  IC50: 7 nM

## CNC(=O)c1cc(Nc2cc(Oc3ccc(NC(=O)Nc4cc(C(C)(C)C)cc(P(C)(C)=O)c4OC)c4ccccc34)ccn2)cc(OCCN2CCOCC2)c1 [79(f), 3-[[4-[[4-[(5-tert-Butyl-3-dimethylphosphoryl-2-methoxy-phenyl)carbamoylamino]-1-naphthyl]oxy]-2-pyridyl]amino]-N-methyl-5-(2-morpholinoethoxy)benzamide]
GSK 3α
  IC50: 957 nM
PBMCs
  IC50: 3.9 nM

## COCCOCCOCCOc1cc(Nc2cc(Oc3ccc(NC(=O)Nc4cc(C(C)(C)C)cc(P(C)(C)=O)c4OC)c4ccccc34)ncn2)cc(OC)c1 [Example 4, 1-(5-(tert-Butyl)-3-(dimethylphosphoryl)-2-methoxyphenyl)-3-(4-((6-((3-methoxy-5-(2-(2-(2-methoxyethoxy)ethoxy)ethoxy)phenyl)amino)pyrimidin-4-yl)oxy)naphthalen-1-yl)urea]
GSK 3α
  IC50: 4100 nM
PBMCs
  IC50: 5.6 nM

## COc1cc(Nc2nccc(Oc3ccc(NC(=O)Nc4cc(C(C)(C)C)cc(P(C)(C)=O)c4OC)c4ccccc34)n2)cc(P(C)(C)=O)c1 [Example 21, 1-(5-(tert-Butyl)-3-(dimethylphosphoryl)-2-methoxyphenyl)-3-(4-((2-((3-(dimethylphosphoryl)-5-methoxyphenyl)amino)pyrimidin-4-yl)oxy)naphthalen-1-yl)urea]
GSK 3α
  IC50: 282 nM
PBMCs
  IC50: 3.2 nM

## COc1c(NC(=O)Nc2ccc(Oc3ccnc(Nc4cccc(N=S(C)(C)=O)c4)n3)c3ccccc23)cc(C(C)(C)C)cc1P(C)(C)=O [Example 22, 1-(5-(tert-Butyl)-3-(dimethylphosphoryl)-2-methoxyphenyl)-3-(4-((2-((3-((dimethyl(oxo)-lambda-6-sulfanylidene)amino)phenyl)amino)pyrimidin-4-yl)oxy)naphthalen-1-yl)urea]
GSK 3α
  IC50: 280 nM
PBMCs
  IC50: 3.3 nM

## COc1c(NC(=O)Nc2ccc(Oc3ccnc(Nc4ccccc4)c3)c3ccccc23)cc(C(C)(C)C)cc1C(=O)NCCN1CCNCC1 [Example 23, 5-(tert-Butyl)-2-methoxy-3-(3-(4-((2-(phenylamino)pyridin-4-yl)oxy)naphthalen-1-yl)ureido)-N-(2-(piperazin-1-yl)ethyl)benzamide]
GSK 3α
  IC50: 7940 nM
PBMCs
  IC50: 6.8 nM

## COc1c(NC(=O)Nc2ccc(Oc3ccnc(NC(=O)CN4C[C@@H](C)O[C@@H](C)C4)c3)c3ccccc23)cc(C(C)(C)C)cc1P(C)(C)=O [Example 26, N-(4-((4-(3-(5-(tert-Butyl)-3-(dimethylphosphoryl)-2-methoxyphenyl)ureido)naphthalen-1-yl)oxy)pyridin-2-yl)-2-(cis-2,6-dimethylmorpholino)acetamide]
GSK 3α
  IC50: 249 nM
PBMCs
  IC50: 2.2 nM

## COc1c(NC(=O)Nc2ccc(Oc3ccnc(NC4CCOCC4)n3)c3ccccc23)cc(C(C)(C)C)cc1P(C)(C)=O [Example 31, 1-(5-(tert-Butyl)-3-(dimethylphosphoryl)-2-methoxyphenyl)-3-(4-((2-((tetrahydro-2H-pyran-4-yl)amino)pyrimidin-4-yl)oxy)naphthalen-1-yl)urea]
GSK 3α
  IC50: 186 nM
PBMCs
  IC50: 2.6 nM
